Experimental data from paper PMC9030691, “Toxicokinetics of β-Amanitin in Mice and In Vitro Drug–Drug Interaction Potential” (Pharmaceutics, 2022).
Entries after “also recorded” stand apart in the source; their conditions may differ.

Experiments:
OAT1 = biological target: T1, OAT1 (Homo sapiens, UniProt Q4U2R8); assay: Uptake of amanitins into HEK293-OAT1 cells; format: in vitro ADME; conditions: 50 μM amanitin, 5 min, 37 °C, HBSS, 20 min preincubation, with and without probenecid, LC-HRMS, n = 3
T1 construct: expressed in transfected cells; host or cells: HEK293
T1 sequence (Q4U2R8 1-563): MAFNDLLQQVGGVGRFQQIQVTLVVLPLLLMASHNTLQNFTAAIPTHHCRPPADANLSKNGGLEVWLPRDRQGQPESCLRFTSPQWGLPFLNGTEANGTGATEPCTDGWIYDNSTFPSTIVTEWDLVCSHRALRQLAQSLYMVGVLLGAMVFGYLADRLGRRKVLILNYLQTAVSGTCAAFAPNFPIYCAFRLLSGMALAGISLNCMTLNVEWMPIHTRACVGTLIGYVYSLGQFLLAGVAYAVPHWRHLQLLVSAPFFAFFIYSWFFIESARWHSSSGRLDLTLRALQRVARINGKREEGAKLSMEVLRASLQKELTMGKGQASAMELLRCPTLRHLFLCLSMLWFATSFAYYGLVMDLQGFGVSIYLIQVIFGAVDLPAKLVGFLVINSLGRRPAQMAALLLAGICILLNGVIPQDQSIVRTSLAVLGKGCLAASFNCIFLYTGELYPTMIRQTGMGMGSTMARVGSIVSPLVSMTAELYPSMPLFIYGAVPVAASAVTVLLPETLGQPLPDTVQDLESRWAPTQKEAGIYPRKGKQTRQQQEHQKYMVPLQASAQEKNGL
Procedure: (§1) HEK293 cells overexpressing OCT2, MATE2-K, OAT1, OAT3, OATP1B1, and OATP1B3 transporters and HEK293-control cells were maintained in a humidified atmosphere of 5% CO2 at 37 °C in DMEM supplemented with 10% FBS and 5 mM non-essential amino acids. In the case of HEK293-OATP1B1, -OATP1B3, and MATE2-K cells, 2 mM sodium butyrate was added to the culture medium to enhance transport activity. Cells were seeded at 2 × 10^5 cells/well in poly-D-lysine-coated 24-well plates. After 24 h, the growth medium was discarded, and attached cells were washed with HBSS and preincubated for 20 min in HBSS at 37 °C. Stock solutions of α- and β-amanitin and representative inhibitors of transporters were diluted in HBSS to make the final concentration: cimetidine 1 mM (for OCT2), cimetidine 100 μM (for MATE2-K), probenecid 100 μM (for OAT1 and OAT3), and rifampin 100 μM (for OATP1B1 and OATP1B3). Uptake of 50 μM α- and β-amanitin was measured in the absence and presence of representative inhibitors for 5 min at 37 °C. Plates were placed immediately on ice, and cells were then washed twice with 1 mL of ice-cold HBSS. Residual HBSS was removed thoroughly from the plates. Subsequently, 150 μL of 80% methanol containing IS was added to each sample well, and the cell plates were shaken gently for 20 min at 4 °C. The remaining steps were the same as described for plasma sample preparation.

OATP1B3 = biological target: T2, OATP1B3 (Homo sapiens, UniProt Q9NPD5); assay: Uptake of amanitins into HEK293-OATP1B3 cells; format: in vitro ADME; conditions: 50 μM amanitin, 5 min, 37 °C, HBSS, 20 min preincubation, with and without rifampin 100 μM, LC-HRMS, n = 3
T2 construct: expressed in transfected cells; host or cells: HEK293
T2 sequence (Q9NPD5 whole entry): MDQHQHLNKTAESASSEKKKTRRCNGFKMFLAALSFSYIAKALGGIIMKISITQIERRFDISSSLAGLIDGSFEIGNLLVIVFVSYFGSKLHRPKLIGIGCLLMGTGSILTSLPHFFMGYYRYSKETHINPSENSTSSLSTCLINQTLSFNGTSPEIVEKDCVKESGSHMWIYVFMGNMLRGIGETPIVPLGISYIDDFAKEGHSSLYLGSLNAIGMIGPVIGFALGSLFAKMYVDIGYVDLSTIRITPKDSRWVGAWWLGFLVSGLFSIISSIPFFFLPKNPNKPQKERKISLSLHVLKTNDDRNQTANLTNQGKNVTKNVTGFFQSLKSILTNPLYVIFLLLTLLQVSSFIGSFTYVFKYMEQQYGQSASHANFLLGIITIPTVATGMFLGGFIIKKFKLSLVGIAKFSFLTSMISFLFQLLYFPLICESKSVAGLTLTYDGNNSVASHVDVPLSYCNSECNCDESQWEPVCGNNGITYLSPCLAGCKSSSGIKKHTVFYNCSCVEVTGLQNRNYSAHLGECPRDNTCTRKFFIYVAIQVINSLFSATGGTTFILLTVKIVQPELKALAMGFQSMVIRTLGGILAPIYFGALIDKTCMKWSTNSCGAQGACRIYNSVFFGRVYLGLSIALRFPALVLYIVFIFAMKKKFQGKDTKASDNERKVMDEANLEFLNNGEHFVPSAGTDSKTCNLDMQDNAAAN
Procedure: as §1

[1] = humans, cited from earlier work; for Concentration in the kidney of amatoxin-intoxicated patients / Concentration in the liver of amatoxin-intoxicated patients: 4 cases; for Plasma concentrations in amatoxin-intoxicated patients: detected in 11 of 43 patients exposed within 36 h; for Total amount excreted in urine in amatoxin-intoxicated patients: measured in 24 patients out of 35 cases
Procedure: In humans, the plasma and urinary concentrations of α- and β-amanitin were detected in cases of suspected amatoxin poisoning. Among 43 amatoxin-intoxicated patients, amanitin was detected in 11 patients who were exposed to amatoxin within 36 h. The plasma concentrations were 8–190 ng/mL for α-amanitin and 15.9–162 ng/mL for β-amanitin [26]. The total amount of α- and β-amanitin excreted in urine were measured in 24 patients out of 35 cases, and a highly variable amount of α- and β-amanitin was recovered from the urine: 0.03–3.29 mg for α-amanitin and 0.05–5.21 mg for β-amani ... || The intestinal tract, liver, and kidney are vulnerable to amanitin toxicity and also express drug-metabolizing enzymes and transporters that regulate the absorption, distribution, metabolism, and excretion of endogenous substrates and xenobiotics. […] Inhibition of CYP1A2, CYP2C8, CYP2C9, CYP2C19, and CYP3A4 at 100 μM in HLMs was almos ...

[2] = oral administration of dried powder of Amanita exitialis 60 mg/kg; cited from earlier work
Procedure: In addition, bile drainage caused more than a 70% reduction in plasma concentration of α- and β-amanitin and reduced hepatic toxicity following the oral administration of dried powder of Amanita exitialis (60 mg/kg). […] However, the toxicokinetics and tissue distribution of β-amanitin (Figure 1) upon ex ...

MATE2-K = MATE2-K (Homo sapiens, UniProt Q86VL8); assay: Uptake of amanitins into HEK293-MATE2-K cells; format: in vitro ADME; parameters: expressed in transfected cells; host or cells: HEK293; conditions: 50 μM amanitin, 5 min, 37 °C, HBSS, 20 min preincubation, with and without cimetidine 100 μM, LC-HRMS, n = 3
MATE2-K, sequence (Q86VL8 1-566 isoform Q86VL8-3): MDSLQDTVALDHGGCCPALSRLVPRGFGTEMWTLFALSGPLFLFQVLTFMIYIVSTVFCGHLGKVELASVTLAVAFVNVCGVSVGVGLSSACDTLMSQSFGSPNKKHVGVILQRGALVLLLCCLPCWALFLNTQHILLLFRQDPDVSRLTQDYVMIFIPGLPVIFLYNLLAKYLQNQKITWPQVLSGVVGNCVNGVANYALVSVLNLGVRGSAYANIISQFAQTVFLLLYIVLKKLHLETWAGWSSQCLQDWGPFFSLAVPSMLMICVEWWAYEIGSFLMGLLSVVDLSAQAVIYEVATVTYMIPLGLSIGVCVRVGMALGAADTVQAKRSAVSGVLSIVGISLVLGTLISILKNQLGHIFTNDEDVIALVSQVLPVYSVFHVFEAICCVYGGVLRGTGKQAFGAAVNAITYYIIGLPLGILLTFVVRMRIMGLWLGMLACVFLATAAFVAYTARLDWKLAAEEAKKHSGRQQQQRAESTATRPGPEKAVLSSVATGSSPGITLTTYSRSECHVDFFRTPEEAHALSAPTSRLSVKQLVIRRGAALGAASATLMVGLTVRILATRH
Procedure: as §1

OAT3 = biological target: T3, OAT3 (Homo sapiens, UniProt Q8TCC7); assay: Uptake of amanitins into HEK293-OAT3 cells; format: in vitro ADME; parameters: expressed in transfected cells; host or cells: HEK293; conditions: 50 μM amanitin, 5 min, 37 °C, HBSS, 20 min preincubation, with and without probenecid, LC-HRMS, n = 3
T3 sequence (Q8TCC7 1-542): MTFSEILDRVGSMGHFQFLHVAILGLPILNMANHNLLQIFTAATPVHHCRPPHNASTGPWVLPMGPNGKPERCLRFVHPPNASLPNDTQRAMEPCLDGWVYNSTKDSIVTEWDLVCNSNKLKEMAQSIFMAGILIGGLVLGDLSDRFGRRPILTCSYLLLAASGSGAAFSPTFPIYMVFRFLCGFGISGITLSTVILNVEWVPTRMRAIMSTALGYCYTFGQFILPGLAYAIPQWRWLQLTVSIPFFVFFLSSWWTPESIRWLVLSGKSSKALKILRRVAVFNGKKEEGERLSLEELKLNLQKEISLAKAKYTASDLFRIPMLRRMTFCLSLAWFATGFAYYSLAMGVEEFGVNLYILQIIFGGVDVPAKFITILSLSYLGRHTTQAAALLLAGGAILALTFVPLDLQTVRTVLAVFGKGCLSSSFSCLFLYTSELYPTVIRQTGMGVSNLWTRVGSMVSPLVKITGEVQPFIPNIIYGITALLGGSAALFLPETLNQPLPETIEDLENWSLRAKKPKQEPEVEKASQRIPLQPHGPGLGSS
Procedure: as §1

Compound | Uptake into HEK293-OAT1 cells compared with HEK293 control cells (transport substrate) (OAT1) | Uptake into HEK293-OATP1B3 cells compared with HEK293 control cells (transport substrate) (OATP1B3) | Concentration in the kidney of amatoxin-intoxicated patients [1] | Concentration in the liver of amatoxin-intoxicated patients [1] | Plasma concentrations in amatoxin-intoxicated patients [1] [ng/mL] | Total amount excreted in urine in amatoxin-intoxicated patients [1] [mg] | Reduction in plasma concentration caused by bile drainage [2] [%] | Uptake into HEK293-MATE2-K cells compared with HEK293 control cells (transport substrate) (MATE2-K) | Uptake into HEK293-OAT3 cells compared with HEK293 control cells (transport substrate) (OAT3)
CC[C@H](C)[C@@H]1NC(=O)CNC(=O)[C@@H]2Cc3c([nH]c4cc(O)ccc34)[S@+]([O-])C[C@H](NC(=O)CNC1=O)C(=O)N[C@@H](CC(=O)O)C(=O)N1C[C@H](O)C[C@H]1C(=O)N[C@@H]([C@@H](C)[C@@H](O)CO)C(=O)N2 [β-amanitin] | not involved in the active transport | significantly increased; also recorded: substrate | 1017–1391 ng/g kidney | 170.8–3298 ng/g liver | 15.9 to 162 | 0.05 to 5.21 | > 70 | not involved in the active transport | significantly greater uptake; also recorded: substrate
α-amanitin [reference compound] | not involved in the active transport | significantly increased | 122–1719 ng/g kidney | 10–19 ng/g liver | 8 to 190 | 0.03 to 3.29 | > 70 | not involved in the active transport | but not α-amanitin, showed significantly greater uptake
